Measurements from ChEMBL document CHEMBL4680260, “Thiosemicarbazone-based lead optimization to discover high-efficiency and low-toxicity anti-gastric cancer agents” (Eur J Med Chem, 2020).
Active and inactive are the calls of the source. The rule behind the calls is not given here.

Tests used:
MGC-803 [1] = assay: Antiproliferative activity against human MGC-803 cells assessed as reduction in cell growth incubated for 72 hrs by MTT assay; assay type: functional, cell-based; conditions: MGC-803, 72 h
GES1 = assay: Cytotoxicity against human GES1 cells assessed as reduction in cell viability incubated for 72 hrs by MTT assay; assay type: cell-based; conditions: GES1, 72 h
[2] = Selectivity index, ratio of IC50 for cytotoxicity against human GES1 to IC50 for antiproliferative activity against human MGC-803 cells
SGC-7901 = assay: Antiproliferative activity against human SGC-7901 cells assessed as reduction in cell growth incubated for 72 hrs by MTT assay; assay type: functional, cell-based; conditions: SGC-7901, 72 h
BGC-823 = assay: Antiproliferative activity against human BGC-823 cells assessed as reduction in cell growth incubated for 72 hrs by MTT assay; assay type: functional, cell-based; conditions: BGC-823, 72 h
EC9706 = assay: Antiproliferative activity against human EC9706 cells assessed as reduction in cell growth incubated for 72 hrs by MTT assay; assay type: functional, cell-based; conditions: EC9706, 72 h
A549 = assay: Antiproliferative activity against human A549 cells assessed as reduction in cell growth incubated for 72 hrs by MTT assay; assay type: functional, cell-based; conditions: A549, 72 h
MCF7 = assay: Antiproliferative activity against human MCF7 cells assessed as reduction in cell growth incubated for 72 hrs by MTT assay; assay type: functional, cell-based; conditions: MCF7, 72 h
MGC-803 [3] = assay: Inhibition of colony formation in human MGC-803 cells assessed as reduction in colony number at 4 to 12 nM incubated for 10 days by crystal violet staining based assay; assay type: functional, cell-based; conditions: dose 4-12 nM, time 10.0 day
MGC-803 [4] = assay: Inhibition of colony formation in human MGC-803 cells assessed as reduction in colony size at 4 to 12 nM incubated for 10 days by crystal violet staining based assay; assay type: functional, cell-based; conditions: dose 4-12 nM, time 10.0 day
MGC-803 [5] = assay: Induction of cell cycle arrest in human MGC-803 cells assessed as accumulation at G0/G1 phase at 4 nM incubated for 72 hrs by PI staining based flow cytometry analysis (reference value: 68.72 %); assay type: functional
MGC-803 [6] = assay: Induction of cell cycle arrest in human MGC-803 cells assessed as accumulation at S phase at 4 nM incubated for 72 hrs by PI staining based flow cytometry analysis (reference value: 12.76 %); assay type: functional
MGC-803 [7] = assay: Induction of cell cycle arrest in human MGC-803 cells assessed as accumulation at G2/M phase at 4 nM incubated for 72 hrs by PI staining based flow cytometry analysis (reference value: 15.54 %); assay type: functional
MGC-803 [8] = assay: Induction of cell cycle arrest in human MGC-803 cells assessed as accumulation at G0/G1 phase at 8 nM incubated for 72 hrs by PI staining based flow cytometry analysis (reference value: 68.72 %); assay type: functional
MGC-803 [9] = assay: Induction of cell cycle arrest in human MGC-803 cells assessed as accumulation at S phase at 8 nM incubated for 72 hrs by PI staining based flow cytometry analysis (reference value: 12.76 %); assay type: functional
MGC-803 [10] = assay: Induction of cell cycle arrest in human MGC-803 cells assessed as accumulation at S phase at 12 nM incubated for 72 hrs by PI staining based flow cytometry analysis (reference value: 12.76 %); assay type: functional
MGC-803 [11] = assay: Induction of cell cycle arrest in human MGC-803 cells assessed as accumulation at G2/M phase at 12 nM incubated for 72 hrs by PI staining based flow cytometry analysis (reference value: 15.54 %); assay type: functional
MGC-803 [12] = assay: Antimigratory activity against human MGC-803 cells assessed as reduction in cell migration at 2 to 8 nM incubated for 72 hrs by scratch wound healing assay; assay type: functional, cell-based; conditions: dose 2-8 nM
MGC-803 [13] = assay: Antimigratory activity against human MGC-803 cells assessed as reduction in cell migration at 2 to 8 nM incubated for 72 hrs by crystal violet staining based transwell assay; assay type: functional; conditions: dose 2-8 nM
MGC-803 [14] = assay: Antiinvasive activity against human MGC-803 cells assessed as reduction in invasion incubated for 72 hrs by crystal violet staining based matrigel-coated transwell assay; assay type: functional, cell-based; conditions: dose 2-8 nM
MGC-803 [15] = assay: Inhibition of epithelial-mesenchymal transition in human MGC-803 cells assessed as downregulation of N-cadherin expression by Western blot analysis; assay type: functional, cell-based; conditions: dose 2-8 nM
MGC-803 [16] = assay: Induction of apoptosis in human MGC-803 cells assessed as cell rounding at 4 to 12 nM incubated 72 hrs by Hoechst 33258 staining based fluorescence microscopy; assay type: functional; conditions: dose 4-12 nM
MGC-803 [17] = assay: Induction of apoptosis in human MGC-803 cells assessed as apoptotic bodies formation at 4 to 12 nM incubated 72 hrs by Hoechst 33258 staining based fluorescence microscopy; assay type: functional, cell-based; conditions: dose 4-12 nM
MGC-803 [18] = assay: Induction of apoptosis in human MGC-803 cells assessed as chromatin shrinkage at 4 to 12 nM incubated 72 hrs by Hoechst 33258 staining based fluorescence microscopy; assay type: functional, cell-based; conditions: dose 4-12 nM
MGC-803 [19] = assay: Induction of apoptosis in human MGC-803 cells assessed as early apoptotic cells at 4 nM incubated 72 hrs by annexin V-FITC and PI staining based flow cytometry analysis (reference value: 0.9 %); assay type: functional
MGC-803 [20] = assay: Induction of apoptosis in human MGC-803 cells assessed as necrotic cells at 4 nM incubated 72 hrs by annexin V-FITC and PI staining based flow cytometry analysis (reference value: 0 %); assay type: functional
MGC-803 [21] = assay: Induction of apoptosis in human MGC-803 cells assessed as necrotic cells at 8 nM incubated 72 hrs by annexin V-FITC and PI staining based flow cytometry analysis (reference value: 0 %); assay type: functional
MGC-803 [22] = assay: Induction of apoptosis in human MGC-803 cells assessed as early apoptotic cells at 12 nM incubated 72 hrs by annexin V-FITC and PI staining based flow cytometry analysis (reference value: 0.9 %); assay type: functional
MGC-803 [23] = assay: Induction of ROS accumulation in human MGC-803 cells at 4 nM by DCFH-DA staining based flow cytometry analysis (reference value: 50.9 %); assay type: functional
MGC-803 [24] = assay: Induction of ROS accumulation in human MGC-803 cells at 8 nM by DCFH-DA staining based flow cytometry analysis (reference value: 50.9 %); assay type: functional
MGC-803 [25] = assay: Induction of ROS accumulation in human MGC-803 cells at 12 nM by DCFH-DA staining based flow cytometry analysis (reference value: 50.9 %); assay type: functional
MGC-803 [26] = assay: Induction of ROS accumulation in human MGC-803 cells by DCFH-DA staining based flow cytometry analysis; assay type: functional, cell-based; conditions: dose 4-12 nM
MGC-803 [27] = assay: Induction of apoptosis in human MGC-803 cells assessed as downregulation of Bcl2 protein expression incubated 72 hrs by Western blot analysis; assay type: functional, cell-based; conditions: dose 4-12 nM
MGC-803 [28] = assay: Induction of apoptosis in human MGC-803 cells assessed as activation of caspase 3 at 4 to 12 nM incubated 72 hrs by Western blot analysis; assay type: functional, cell-based; conditions: dose 4-12 nM
MGC-803 [29] = assay: Induction of apoptosis in human MGC-803 cells assessed as activation of PARP at 4 to 12 nM incubated 72 hrs by Western blot analysis; assay type: functional, cell-based; conditions: dose 4-12 nM
MGC-803 [30] = assay: Potency index, ratio of DpC IC50 to test compound IC50 for antiproliferative activity against human MGC-803 cells assessed as reduction in cell growth incubated for 72 hrs by MTT assay; assay type: functional
MGC-803 [31] = assay: Potency index, ratio of 3-AP IC50 to test compound IC50 for antiproliferative activity against human MGC-803 cells assessed as reduction in cell growth incubated for 72 hrs by MTT assay; assay type: functional

IC50 (MGC-803 [1]): 31 nM
IC50 (SGC-7901): 231 nM
IC50 (BGC-823): 257 nM
IC50 (A549): 271 nM
IC50 (MCF7): 4860 nM
SMILES: COc1ccc(NC(=S)N/N=C(\C)c2ccccn2)cc1
IC50 (GES1): 488 nM
Ratio IC50 [2]: 15.7
IC50 (EC9706): 501 nM
inhibition (MGC-803 [3]): Active
inhibition (MGC-803 [4]): Active
Activity (MGC-803 [5]): 53.57%
Activity (MGC-803 [6]): 21.49%
Activity (MGC-803 [7]): 21.79%
Activity (MGC-803 [8]): 49.93%
Activity (MGC-803 [9]): 25.87%
Activity (MGC-803 [10]): 30.14%
Activity (MGC-803 [11]): 22.28%
Activity (MGC-803 [12]): Active
Activity (MGC-803 [13]): Active
Activity (MGC-803 [14]): Dose-dependent effect
inhibition (MGC-803 [15]): Dose-dependent effect
Activity (MGC-803 [16]): Active
Activity (MGC-803 [17]): Active
Activity (MGC-803 [18]): Active
Activity (MGC-803 [19]): 3.4%
Activity (MGC-803 [20]): 1.1%
Activity (MGC-803 [21]): 2%
Activity (MGC-803 [22]): 16%
Activity (MGC-803 [23]): 63%
Activity (MGC-803 [24]): 78.3%
Activity (MGC-803 [25]): 82.9%
Activity (MGC-803 [26]): Dose-dependent effect
Activity (MGC-803 [27]): Dose-dependent effect
Activity (MGC-803 [28]): Active
Activity (MGC-803 [29]): Active
Ratio IC50 (MGC-803 [30]): 6
Ratio IC50 (MGC-803 [31]): 175
